Where two headings read alike, the source gives them in different places. Starred links: 1 amine or outer side, 2 acyl side, 3 side chain; linkers in the order of their positions; H or OH if unused. Positions of bridges follow the written chain, without caps; N, C: chain ends. Non-standard residues stand in square brackets, D forms with d. Residues, ends and D or L forms follow the SMILES beside them. *: point of attachment. Orn(4R-OH,5R-OH) = O=C([C@H](C[C@@H](O)[C@@H](O)N[*:3])N[*:1])[*:2]; hTyr(3S-OH,4S-OH) = N[C@H](C(=O)O)[C@H](O)[C@@H](O)c1ccc(O)cc1; Benzoyl(4-OC10H21) = CCCCCCCCCCOc1ccc(C(=O)*)cc1; Pro(3S-OH,4S-Me) = C[C@H]1CN[C@H](C(=O)O)[C@H]1O; X2 = CCCCCCCCCCCCCCS(=O)(=O)c1ccc(C(=O)*)cc1; Benzoyl(4-octyl) = CCCCCCCCc1ccc(C(=O)*)cc1; X5 = CCCCCCCCCCCCS(=O)(=O)c1ccc(C(=O)*)cc1; X18 = CCCCCCCCCCCCOc1ccc(CC(=O)*)cc1; X3 = CCCCCCCCCCCCCCSc1ccc(C(=O)*)cc1; X10 = CCCCCCCCCCCCOc1cccc(C(=O)*)c1; X16 = CCCCCCCCOc1ccc(C=CC(=O)*)cc1; X11 = CCCCCCCCOc1ccc(OCC(=O)*)cc1; Hyp = O=C(O)[C@@H]1C[C@@H](O)CN1; X15 = CCCCCCCCOc1cccc(CC(=O)*)c1; X19 = CCCCCCOc1ccc(C=CC(=O)*)cc1; X9 = CCCCCCCCCCOc1cccc(C(=O)*)c1; X12 = CCCCCCOc1ccc(CCC(=O)*)cc1; X13 = CCCCCCCCOc1cccc(C(=O)*)c1; X14 = CCCCCCOc1ccc(C(=O)*)cc1; X17 = CCCCOc1ccc(CCC(=O)*)cc1
Experiments:
Candida albicans A-26 [1] = assay: Therapeutic activity against Candida albicans A-26 infection in mice, ED50; assay type: in vivo; details: Candida albicans, A26, sc, doses 0, 4 and 24 hours post infection, increase in survival time vs control, Reed-Muench, read-out: ED50
Method: (§1) The results of in vivo tests to evaluate the effectiveness of the compounds of Examples 3 and 4 against an infection caused by Candida albicans A-26 in mice are given in Table 13, where activity is measured by the ED50 value (the dose in mg/kg. required to cure 50% of the test animals). In a separate test, the results of which are also summarized in Table 13, activity is indicated by the lowest dose at which a significant anti-fungal effect is observed. In this test, groups of male albino mice (specific pathogen free), weighing 18 to 20 grams, are infected intravenously with Candida albicans A-26. The animals are X-irradiated 24 hours prior to infection at about 50 roentgens per minute for 8 minutes (400 total dose) to reduce immune responses to the infecting organism. At 0, 4, and 24 hours post infection each group of mice is given graded doses subcutaneously of the test compound as a suspension in 33% polyethylene glycol (PEG)-water. The day of death for each animal is recorded.
(§2) *Dosage Schedules: A. = 40, 20, 15 and 10 mg/kg; Dosages given 0, 4, and
(§3) 24 hours post injection as suspension of test compound in 30% PEGH2
(§4) O. Number of mice receiving test compounds at each dosage level: 6 mice
(§5) per group. Number of mice in control (untreated) group: 10 mice per group
**As measured by increase in survival time of treated animals versus
control, calculated by method of Reed v Mueuch, American J. Hygiene, 27,

Candida albicans A-26 [2] = assay: Therapeutic activity against Candida albicans A-26 infection in X-irradiated mice, lowest active dose; assay type: in vivo; details: A26, light or radiation study, sc
Method: as §1, §2, §3, §4, §5

in vivo = details: mouse, po, 416 mg/kg
[3] = X-irradiated mice, subcutaneous at 0, 4 and 24 hours post infection, survival, read-out: Lowest Active Dose
[4] = read-out: Lowest Active Dose, X-irradiated mice, subcutaneous at 0, 4 and 24 hours post infection, survival

Row | Compound | ED50 (Candida albicans A-26 [1]) [mg/kg] | minimal effective dose (Candida albicans A-26 [2]; [3]) [mg/kg] | minimal effective dose (Candida albicans A-26 [2]; [4]) [mg/kg] | Cmax (in vivo) [ng/mL]
1 | CCCCCCCCCCCCCCSc1ccc(C(=O)N[C@H]2C[C@@H](O)[C@@H](O)NC(=O)[C@@H]3[C@@H](O)[C@@H](C)CN3C(=O)[C@H]([C@@H](C)O)NC(=O)[C@H]([C@H](O)[C@@H](O)c3ccc(O)cc3)NC(=O)[C@@H]3C[C@@H](O)CN3C(=O)[C@H]([C@@H](C)O)NC2=O)cc1 [drawing 158] (X3-[Orn(4R-OH,5R-OH)]T[Hyp][hTyr(3S-OH,4S-OH)]T[Pro(3S-OH,4S-Me)]; lactam 1-C) | 20 | 2.5 |  | 
2 | CCCCCCCCCCCCS(=O)(=O)c1ccc(C(=O)N[C@H]2C[C@@H](O)[C@@H](O)NC(=O)[C@@H]3[C@@H](O)[C@@H](C)CN3C(=O)[C@H]([C@@H](C)O)NC(=O)[C@H]([C@H](O)[C@@H](O)c3ccc(O)cc3)NC(=O)[C@@H]3C[C@@H](O)CN3C(=O)[C@H]([C@@H](C)O)NC2=O)cc1 [drawing 161] (X5-[Orn(4R-OH,5R-OH)]T[Hyp][hTyr(3S-OH,4S-OH)]T[Pro(3S-OH,4S-Me)]; lactam 1-C) | 53 | 20 |  | 
3 | CCCCCCCCCCCCCCS(=O)(=O)c1ccc(C(=O)N[C@H]2C[C@@H](O)[C@@H](O)NC(=O)[C@@H]3[C@@H](O)[C@@H](C)CN3C(=O)[C@H]([C@@H](C)O)NC(=O)[C@H]([C@H](O)[C@@H](O)c3ccc(O)cc3)NC(=O)[C@@H]3C[C@@H](O)CN3C(=O)[C@H]([C@@H](C)O)NC2=O)cc1 [drawing 162] (X2-[Orn(4R-OH,5R-OH)]T[Hyp][hTyr(3S-OH,4S-OH)]T[Pro(3S-OH,4S-Me)]; lactam 1-C) | 11 |  | 5 | 
4 | CCCCCCCCOc1cccc(C(=O)N[C@H]2C[C@@H](O)[C@@H](O)NC(=O)[C@@H]3[C@@H](O)[C@@H](C)CN3C(=O)[C@H]([C@@H](C)O)NC(=O)[C@H]([C@H](O)[C@@H](O)c3ccc(O)cc3)NC(=O)[C@@H]3C[C@@H](O)CN3C(=O)[C@H]([C@@H](C)O)NC2=O)c1 [drawing 163] (X13-[Orn(4R-OH,5R-OH)]T[Hyp][hTyr(3S-OH,4S-OH)]T[Pro(3S-OH,4S-Me)]; lactam 1-C) | > 50 | 40 |  | 
5 | CCCCCCCCCCOc1cccc(C(=O)N[C@H]2C[C@@H](O)[C@@H](O)NC(=O)[C@@H]3[C@@H](O)[C@@H](C)CN3C(=O)[C@H]([C@@H](C)O)NC(=O)[C@H]([C@H](O)[C@@H](O)c3ccc(O)cc3)NC(=O)[C@@H]3C[C@@H](O)CN3C(=O)[C@H]([C@@H](C)O)NC2=O)c1 [drawing 164] (X9-[Orn(4R-OH,5R-OH)]T[Hyp][hTyr(3S-OH,4S-OH)]T[Pro(3S-OH,4S-Me)]; lactam 1-C) | > 50 | > 40 |  | 
6 | CCCCCCCCCCCCOc1cccc(C(=O)N[C@H]2C[C@@H](O)[C@@H](O)NC(=O)[C@@H]3[C@@H](O)[C@@H](C)CN3C(=O)[C@H]([C@@H](C)O)NC(=O)[C@H]([C@H](O)[C@@H](O)c3ccc(O)cc3)NC(=O)[C@@H]3C[C@@H](O)CN3C(=O)[C@H]([C@@H](C)O)NC2=O)c1 [drawing 165] (X10-[Orn(4R-OH,5R-OH)]T[Hyp][hTyr(3S-OH,4S-OH)]T[Pro(3S-OH,4S-Me)]; lactam 1-C) | > 50 | > 40 |  | 
7 | CCCCCCOc1ccc(C(=O)N[C@H]2C[C@@H](O)[C@@H](O)NC(=O)[C@@H]3[C@@H](O)[C@@H](C)CN3C(=O)[C@H]([C@@H](C)O)NC(=O)[C@H]([C@H](O)[C@@H](O)c3ccc(O)cc3)NC(=O)[C@@H]3C[C@@H](O)CN3C(=O)[C@H]([C@@H](C)O)NC2=O)cc1 [drawing 167] (X14-[Orn(4R-OH,5R-OH)]T[Hyp][hTyr(3S-OH,4S-OH)]T[Pro(3S-OH,4S-Me)]; lactam 1-C) | 28 | 20 |  | 
8 | CCCCCCCCc1ccc(C(=O)N[C@H]2C[C@@H](O)[C@@H](O)NC(=O)[C@@H]3[C@@H](O)[C@@H](C)CN3C(=O)[C@H]([C@@H](C)O)NC(=O)[C@H]([C@H](O)[C@@H](O)c3ccc(O)cc3)NC(=O)[C@@H]3C[C@@H](O)CN3C(=O)[C@H]([C@@H](C)O)NC2=O)cc1 [drawing 169] ({Benzoyl(4-octyl)}-[Orn(4R-OH,5R-OH)]T[Hyp][hTyr(3S-OH,4S-OH)]T[Pro(3S-OH,4S-Me)]; lactam 1-C) | 30 | 40 |  | 
9 | CCCCOc1ccc(CCC(=O)N[C@H]2C[C@@H](O)[C@@H](O)NC(=O)[C@@H]3[C@@H](O)[C@@H](C)CN3C(=O)[C@H]([C@@H](C)O)NC(=O)[C@H]([C@H](O)[C@@H](O)c3ccc(O)cc3)NC(=O)[C@@H]3C[C@@H](O)CN3C(=O)[C@H]([C@@H](C)O)NC2=O)cc1 [drawing 170] (X17-[Orn(4R-OH,5R-OH)]T[Hyp][hTyr(3S-OH,4S-OH)]T[Pro(3S-OH,4S-Me)]; lactam 1-C) | > 40 | 40 |  | 
10 | CCCCCCOc1ccc(CCC(=O)N[C@H]2C[C@@H](O)[C@@H](O)NC(=O)[C@@H]3[C@@H](O)[C@@H](C)CN3C(=O)[C@H]([C@@H](C)O)NC(=O)[C@H]([C@H](O)[C@@H](O)c3ccc(O)cc3)NC(=O)[C@@H]3C[C@@H](O)CN3C(=O)[C@H]([C@@H](C)O)NC2=O)cc1 [drawing 171] (X12-[Orn(4R-OH,5R-OH)]T[Hyp][hTyr(3S-OH,4S-OH)]T[Pro(3S-OH,4S-Me)]; lactam 1-C) | 9.2 |  | 5 | 
11 | CCCCCCOc1ccc(C=CC(=O)N[C@H]2C[C@@H](O)[C@@H](O)NC(=O)[C@@H]3[C@@H](O)[C@@H](C)CN3C(=O)[C@H]([C@@H](C)O)NC(=O)[C@H]([C@H](O)[C@@H](O)c3ccc(O)cc3)NC(=O)[C@@H]3C[C@@H](O)CN3C(=O)[C@H]([C@@H](C)O)NC2=O)cc1 [drawing 175] (X19-[Orn(4R-OH,5R-OH)]T[Hyp][hTyr(3S-OH,4S-OH)]T[Pro(3S-OH,4S-Me)]; lactam 1-C) | 21.8 |  | 5 | 
12 | CCCCCCCCOc1ccc(C=CC(=O)N[C@H]2C[C@@H](O)[C@@H](O)NC(=O)[C@@H]3[C@@H](O)[C@@H](C)CN3C(=O)[C@H]([C@@H](C)O)NC(=O)[C@H]([C@H](O)[C@@H](O)c3ccc(O)cc3)NC(=O)[C@@H]3C[C@@H](O)CN3C(=O)[C@H]([C@@H](C)O)NC2=O)cc1 [drawing 176] (X16-[Orn(4R-OH,5R-OH)]T[Hyp][hTyr(3S-OH,4S-OH)]T[Pro(3S-OH,4S-Me)]; lactam 1-C) | 3.75 |  | 5 | 
13 | CCCCCCCCOc1cccc(CC(=O)N[C@H]2C[C@@H](O)[C@@H](O)NC(=O)[C@@H]3[C@@H](O)[C@@H](C)CN3C(=O)[C@H]([C@@H](C)O)NC(=O)[C@H]([C@H](O)[C@@H](O)c3ccc(O)cc3)NC(=O)[C@@H]3C[C@@H](O)CN3C(=O)[C@H]([C@@H](C)O)NC2=O)c1 [drawing 177] (X15-[Orn(4R-OH,5R-OH)]T[Hyp][hTyr(3S-OH,4S-OH)]T[Pro(3S-OH,4S-Me)]; lactam 1-C) | > 40 |  | 10 | 
14 | CCCCCCCCCCCCOc1ccc(CC(=O)N[C@H]2C[C@@H](O)[C@@H](O)NC(=O)[C@@H]3[C@@H](O)[C@@H](C)CN3C(=O)[C@H]([C@@H](C)O)NC(=O)[C@H]([C@H](O)[C@@H](O)c3ccc(O)cc3)NC(=O)[C@@H]3C[C@@H](O)CN3C(=O)[C@H]([C@@H](C)O)NC2=O)cc1 [drawing 178] (X18-[Orn(4R-OH,5R-OH)]T[Hyp][hTyr(3S-OH,4S-OH)]T[Pro(3S-OH,4S-Me)]; lactam 1-C) | 8.4 |  | 10 | 
15 | CCCCCCCCOc1ccc(OCC(=O)N[C@H]2C[C@@H](O)[C@@H](O)NC(=O)[C@@H]3[C@@H](O)[C@@H](C)CN3C(=O)[C@H]([C@@H](C)O)NC(=O)[C@H]([C@H](O)[C@@H](O)c3ccc(O)cc3)NC(=O)[C@@H]3C[C@@H](O)CN3C(=O)[C@H]([C@@H](C)O)NC2=O)cc1 [drawing 179] (X11-[Orn(4R-OH,5R-OH)]T[Hyp][hTyr(3S-OH,4S-OH)]T[Pro(3S-OH,4S-Me)]; lactam 1-C) | 16.8 |  | 10 | 
16 | CCCCCCCCCCOc1ccc(C(=O)N[C@H]2C[C@@H](O)[C@@H](O)NC(=O)[C@@H]3[C@@H](O)[C@@H](C)CN3C(=O)[C@H]([C@@H](C)O)NC(=O)[C@H]([C@H](O)[C@@H](O)c3ccc(O)cc3)NC(=O)[C@@H]3C[C@@H](O)CN3C(=O)[C@H]([C@@H](C)O)NC2=O)cc1 [drawing 182] ({Benzoyl(4-OC10H21)}-[Orn(4R-OH,5R-OH)]T[Hyp][hTyr(3S-OH,4S-OH)]T[Pro(3S-OH,4S-Me)]; lactam 1-C) |  |  |  | < 100
